In patent US20180201614A1, “BICYCLIC COMPOUNDS” (KALYRA PHARMACEUTICALS, INC., priority 2015, published 2018):
pIC50: −log10 of the molar value.

Experiments:
[1] = target: INSR (Homo sapiens, UniProt P06213); experiment: Biochemical enzyme assay, INSR
[2] = target: EGFR L858R (Homo sapiens, UniProt P00533, L858R); experiment: EGFR biochemical enzyme assay, L858R
[3] = system: PC9 (E746-A750 deletion) cells; experiment: EGFR cell proliferation assay (CellTiter-Glo), PC9; type: cell-based; conditions: 3-5 days
Method: (§1) Cell Lines: A431 (WT), H1975 (L858R/T790M), PC9 (E746-A750 deletion): A431 cells were grown in DMEM (Invitrogen, Carlsbad, Calif.) supplemented with 10% FBS (HyClone, South Logan, Utah) and 1% Penicillin-Streptomycin (P/S, Lonza, Walkersville, Md.). H1975 cells were grown in RPMI 1640 (Invitrogen) supplemented with 10% FBS and 1% P/S. […] PC-9 cells were obtained from Japan. All cells were maintained and propagated as monolayer cultures at 37° C. in a humidified 5% CO2 incubator. All cells were cultured according to recommendations.
(§2) Cell proliferation was measured using the CellTiter-Glo® Luminescent Cell Viability Assay. The assay involved the addition of a single reagent (CellTiter-Glo® Reagent) directly to cells cultured in serum-supplemented medium. The assay used a one-step addition to induce cell lysis and generate a luminescent signal proportional to the amount of ATP present, which is directly proportional to the number of metabolically active cells present in culture.
(§3) Each compound evaluated was prepared as a DMSO stock solution (10 mM). Compounds were tested in duplicate on each plate, with an 11-point serial dilution curve (1:3 dilution). Compound treatment (50 μL) was added from the compound dilution plate to the cell plate. The highest compound concentration was 1 or 10 μM (final), with a 0.3% final DMSO (#D-5879, Sigma, St Louis, Mo.) concentration. Plates were then incubated at 37° C., 5% CO2. After 3-5 days of compound treatment, CellTiter-Glo® Reagent (#G7573, Promega, Madison, Wis.) was prepared in one of two ways. If thawing a frozen aliquot of CellTiter-Glo® Reagent, the aliquot was thawed and equilibrated to RT prior to use while keeping it protected from light. Alternatively, new bottles of CellTiter-Glo® Buffer and CellTiter-Glo® Substrate were thawed and equilibrated to RT prior to use. CellTiter-Glo® Buffer (100 mL) was transferred into the amber bottle containing CellTiter-Glo® Substrate to reconstitute the lyophilized enzyme/substrate mixture, forming the CellTiter-Glo® Reagent. The reconstituted reagent was mixed by gently inverting the contents to obtain a homogeneous solution, and went into solution easily in less than 1 min. Any unused reconstituted CellTiter-Glo® Reagent was immediately aliquoted and frozen at −20° C., and protected from light. Cell plates were equilibrated at RT for approximately 30 mins. An equi-volume amount of CellTiter-Glo® Reagent (100 μL) was added to each well. Plates were mixed for 2 mins on an orbital shaker to induce cell lysis, and then were allowed to incubate at RT for 10 mins to stabilize the luminescent signal. Luminescence was recorded using the PerkinElmer EnVision Excite Multilabel Reader used for endpoint reading for luminescence detection (Waltham, Mass.). Data was analyzed using a four-parameter fit in Microsoft Excel.

[4] = target: T1, EGFR Del-19 (Homo sapiens, UniProt P00533); experiment: EGFR biochemical enzyme assay, Del-19
T1 construct: as on the sister T790M/L858R enzyme

[5] = system: H1975 (L858R/T790M) cells; experiment: EGFR cell proliferation assay (CellTiter-Glo), H1975; type: cell-based; conditions: Homo sapiens, NCI-H1975, 3-5 days
Method: as §1, §2, §3

[6] = target: T2, human EGFR (T790M/L858R) (Homo sapiens, UniProt P00533, L858R/T790M); experiment: EGFR biochemical enzyme assay (HTRF KinEASE TK); conditions: 30 μM ATP
T2 construct: with amino acids 696-end containing the T790M and L858R mutations; GST (N); purchased Millipore
Method: The inhibitory activity of a compound against EGFR (T790M/L858R) were determined with CisBio HTRF (homogenous time-resolved fluorescence) KinEASE TK (#62TKOPEC). The enzyme reaction contained recombinant N-terminal GST-tagged human EGFR (T790M/L858R), which phosphorylates the HTRF tyrosine kinase biotinylated substrate.
The sequence of the substrate is proprietary to CisBio. Test compounds were serially diluted in 100% (v/v) DMSO before being acoustically dispensed from an Echo 555 (Labcyte) into black Corning 1536-well assay plates. Kinase activity assays were performed in a total reaction volume of 3 μL per well. A 1.5 μL enzyme reaction consisted of 1.6 nM EGFR ([…], L858R), 1 mM DTT, and 10 mM MgCl2. A 1.5 μL substrate mix consisted of 1 μM TK substrate, 30 μM ATP, 1 mM DTT, and 10 mM MgCl2. Following a 50 mins incubation, 3 μL of stop mix was added, which consisted of 250 nM Strep-XL665 and TK Ab-Cryptate diluted in kit detection buffer. The plates were incubated for 1 h before being read on Pherastar using standard HTRF settings. N-terminal GST-tagged recombinant human EGF receptor, with amino acids 696-end containing the T790M and L858R mutations, was obtained from Millipore.

[7] = system: A431 (WT) cells; experiment: EGFR cell proliferation assay (CellTiter-Glo), A431; type: cell-based; conditions: Homo sapiens, A-431, 3-5 days
Method: as §1, §2, §3

[8] = target: EGFR Wt (Homo sapiens, UniProt P00533); experiment: EGFR biochemical enzyme assay, Wt
[9] = target: IGF1R (Homo sapiens, UniProt P08069); experiment: Biochemical enzyme assay, IGF1R
IGF1R, sequence (P08069 31-1367, species assumed): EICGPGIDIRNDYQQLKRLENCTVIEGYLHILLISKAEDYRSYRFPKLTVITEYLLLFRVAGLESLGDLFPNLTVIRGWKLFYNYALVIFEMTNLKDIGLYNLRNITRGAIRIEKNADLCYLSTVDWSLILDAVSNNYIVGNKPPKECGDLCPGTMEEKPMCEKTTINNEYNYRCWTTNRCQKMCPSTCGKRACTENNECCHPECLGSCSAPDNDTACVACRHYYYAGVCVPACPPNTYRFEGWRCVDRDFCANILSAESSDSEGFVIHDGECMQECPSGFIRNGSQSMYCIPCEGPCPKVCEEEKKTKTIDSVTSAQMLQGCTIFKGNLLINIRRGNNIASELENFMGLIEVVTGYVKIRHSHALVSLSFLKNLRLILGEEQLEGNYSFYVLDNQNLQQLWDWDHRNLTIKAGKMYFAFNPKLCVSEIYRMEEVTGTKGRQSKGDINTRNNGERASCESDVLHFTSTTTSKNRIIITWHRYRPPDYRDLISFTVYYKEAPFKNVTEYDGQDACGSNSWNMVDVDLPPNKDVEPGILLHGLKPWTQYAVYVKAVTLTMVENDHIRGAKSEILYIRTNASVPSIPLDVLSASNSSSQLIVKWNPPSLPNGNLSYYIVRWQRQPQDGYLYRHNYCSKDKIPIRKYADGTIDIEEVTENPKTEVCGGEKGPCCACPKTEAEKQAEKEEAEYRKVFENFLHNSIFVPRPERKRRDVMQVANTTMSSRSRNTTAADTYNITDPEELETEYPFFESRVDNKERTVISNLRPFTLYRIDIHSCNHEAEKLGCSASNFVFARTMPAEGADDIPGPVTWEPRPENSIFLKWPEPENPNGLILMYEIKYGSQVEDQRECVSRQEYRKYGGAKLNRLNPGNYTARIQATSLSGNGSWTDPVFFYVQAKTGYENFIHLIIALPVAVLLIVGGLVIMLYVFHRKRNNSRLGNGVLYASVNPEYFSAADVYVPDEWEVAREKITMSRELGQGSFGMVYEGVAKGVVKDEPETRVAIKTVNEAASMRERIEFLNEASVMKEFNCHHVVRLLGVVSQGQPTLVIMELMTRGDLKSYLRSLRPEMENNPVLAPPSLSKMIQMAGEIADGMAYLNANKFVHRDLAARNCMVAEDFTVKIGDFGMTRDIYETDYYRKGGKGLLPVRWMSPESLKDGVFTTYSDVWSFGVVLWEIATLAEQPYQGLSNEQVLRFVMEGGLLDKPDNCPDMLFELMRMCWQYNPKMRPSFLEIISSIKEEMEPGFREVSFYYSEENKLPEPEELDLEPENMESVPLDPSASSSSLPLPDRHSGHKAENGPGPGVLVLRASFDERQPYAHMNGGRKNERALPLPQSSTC

T2 sequence (P00533 696-1210 T790M/L858R): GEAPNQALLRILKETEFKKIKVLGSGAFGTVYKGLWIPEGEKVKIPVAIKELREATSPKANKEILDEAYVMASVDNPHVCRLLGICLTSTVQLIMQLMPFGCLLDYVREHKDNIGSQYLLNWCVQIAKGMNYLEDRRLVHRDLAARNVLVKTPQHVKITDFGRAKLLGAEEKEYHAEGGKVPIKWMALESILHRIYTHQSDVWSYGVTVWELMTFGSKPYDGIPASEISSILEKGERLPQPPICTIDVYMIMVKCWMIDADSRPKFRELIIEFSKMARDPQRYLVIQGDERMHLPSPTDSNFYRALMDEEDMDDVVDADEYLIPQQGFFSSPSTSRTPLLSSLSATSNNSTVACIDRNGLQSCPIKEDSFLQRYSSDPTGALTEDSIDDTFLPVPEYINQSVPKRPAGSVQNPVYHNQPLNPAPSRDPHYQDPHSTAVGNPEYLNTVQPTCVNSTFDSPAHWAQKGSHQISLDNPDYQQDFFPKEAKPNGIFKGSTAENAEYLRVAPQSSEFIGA
EGFR Wt, sequence (P00533 25-1210): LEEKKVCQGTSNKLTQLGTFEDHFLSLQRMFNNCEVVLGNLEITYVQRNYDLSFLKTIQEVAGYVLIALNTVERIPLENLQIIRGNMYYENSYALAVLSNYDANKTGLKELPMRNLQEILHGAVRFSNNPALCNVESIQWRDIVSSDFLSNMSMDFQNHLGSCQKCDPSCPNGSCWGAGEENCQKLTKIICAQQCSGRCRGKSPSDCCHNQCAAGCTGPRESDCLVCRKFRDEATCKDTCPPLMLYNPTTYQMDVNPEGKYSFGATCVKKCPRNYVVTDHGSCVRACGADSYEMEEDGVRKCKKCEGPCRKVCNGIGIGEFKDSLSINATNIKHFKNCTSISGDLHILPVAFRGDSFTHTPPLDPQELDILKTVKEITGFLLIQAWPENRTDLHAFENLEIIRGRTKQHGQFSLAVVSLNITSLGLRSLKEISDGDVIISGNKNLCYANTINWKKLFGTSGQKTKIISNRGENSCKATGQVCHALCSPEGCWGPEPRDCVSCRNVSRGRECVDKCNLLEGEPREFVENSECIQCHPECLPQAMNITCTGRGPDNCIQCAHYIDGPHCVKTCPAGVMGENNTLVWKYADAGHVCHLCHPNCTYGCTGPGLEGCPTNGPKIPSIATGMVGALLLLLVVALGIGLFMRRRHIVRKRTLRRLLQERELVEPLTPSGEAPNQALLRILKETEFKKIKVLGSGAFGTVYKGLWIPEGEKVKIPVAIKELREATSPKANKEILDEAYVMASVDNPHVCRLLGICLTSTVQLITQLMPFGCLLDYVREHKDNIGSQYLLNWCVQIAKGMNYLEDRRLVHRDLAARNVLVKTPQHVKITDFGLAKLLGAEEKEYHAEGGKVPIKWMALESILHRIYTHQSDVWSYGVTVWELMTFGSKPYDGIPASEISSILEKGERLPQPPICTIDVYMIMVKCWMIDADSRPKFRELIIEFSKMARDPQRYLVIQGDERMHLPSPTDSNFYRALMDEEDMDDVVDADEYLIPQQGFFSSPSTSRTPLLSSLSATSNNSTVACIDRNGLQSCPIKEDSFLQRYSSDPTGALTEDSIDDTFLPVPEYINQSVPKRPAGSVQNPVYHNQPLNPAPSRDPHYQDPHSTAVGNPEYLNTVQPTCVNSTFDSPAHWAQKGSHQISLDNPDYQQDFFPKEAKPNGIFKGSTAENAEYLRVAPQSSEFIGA
INSR, sequence (P06213 28-1382, species assumed): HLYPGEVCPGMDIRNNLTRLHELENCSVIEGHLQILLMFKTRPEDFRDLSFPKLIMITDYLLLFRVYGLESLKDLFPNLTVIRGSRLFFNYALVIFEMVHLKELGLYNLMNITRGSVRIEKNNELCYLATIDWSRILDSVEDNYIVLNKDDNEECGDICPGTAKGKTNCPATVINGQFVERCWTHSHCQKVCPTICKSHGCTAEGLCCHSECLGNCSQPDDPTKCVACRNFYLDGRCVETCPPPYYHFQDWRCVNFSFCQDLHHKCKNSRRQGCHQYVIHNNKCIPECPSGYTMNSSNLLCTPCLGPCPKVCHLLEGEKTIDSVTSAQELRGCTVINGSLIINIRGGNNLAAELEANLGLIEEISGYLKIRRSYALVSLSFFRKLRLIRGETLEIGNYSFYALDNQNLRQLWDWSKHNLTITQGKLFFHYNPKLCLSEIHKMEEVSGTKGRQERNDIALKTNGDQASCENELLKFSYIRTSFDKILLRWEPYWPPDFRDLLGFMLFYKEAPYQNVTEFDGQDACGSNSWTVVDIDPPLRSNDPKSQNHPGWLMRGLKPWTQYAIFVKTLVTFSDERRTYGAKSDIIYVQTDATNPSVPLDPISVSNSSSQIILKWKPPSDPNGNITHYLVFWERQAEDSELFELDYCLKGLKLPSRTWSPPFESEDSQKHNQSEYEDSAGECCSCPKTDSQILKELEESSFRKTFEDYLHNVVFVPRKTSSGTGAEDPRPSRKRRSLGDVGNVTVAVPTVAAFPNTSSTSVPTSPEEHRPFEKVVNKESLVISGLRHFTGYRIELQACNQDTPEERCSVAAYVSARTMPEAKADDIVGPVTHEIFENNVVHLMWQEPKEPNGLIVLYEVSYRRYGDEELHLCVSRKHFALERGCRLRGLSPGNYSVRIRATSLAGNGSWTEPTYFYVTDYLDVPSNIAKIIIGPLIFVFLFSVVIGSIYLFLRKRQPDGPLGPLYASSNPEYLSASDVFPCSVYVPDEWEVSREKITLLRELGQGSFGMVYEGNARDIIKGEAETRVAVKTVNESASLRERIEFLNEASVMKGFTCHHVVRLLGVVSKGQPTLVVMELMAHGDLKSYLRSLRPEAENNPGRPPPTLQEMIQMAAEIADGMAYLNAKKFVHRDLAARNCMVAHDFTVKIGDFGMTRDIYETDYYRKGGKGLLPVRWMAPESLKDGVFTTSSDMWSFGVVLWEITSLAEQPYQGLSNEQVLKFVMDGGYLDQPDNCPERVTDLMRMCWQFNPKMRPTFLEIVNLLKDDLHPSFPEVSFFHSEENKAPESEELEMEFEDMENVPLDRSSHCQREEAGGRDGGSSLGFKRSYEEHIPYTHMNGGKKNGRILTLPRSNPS

| Structure (SMILES) | pIC50 [1] | pIC50 [2] | pIC50 [3] | pIC50 [4] | pIC50 [5] | pIC50 [6] | pIC50 [7] | pIC50 [8] | pIC50 [9] |
| --- | --- | --- | --- | --- | --- | --- | --- | --- | --- |
| C=CC(=O)N[C@@H]1CN(c2nc(Nc3cn(C)nc3OC)c3ncn(C45CC(C4)C5)c3n2)C[C@H]1F (racemic) [Example 6, N-((3R,4R)-1-(9-(bicyclo[1.1.1]pentan-1-yl)-6-((3-methoxy-1-methyl-1H-pyrazol-4-yl)amino)-9H-purin-2-yl)-4-fluoropyrrolidin-3-yl)acrylamide] | ≤ 7.00 | ≥ 8.00 | > 7.30 | ≥ 8.00 | 6.52 to 7.30 | ≥ 8.00 | ≤ 6.52 | ≥ 8.00 | ≤ 7.00 |
| C=CC(=O)N[C@@H]1CN(c2nc(Nc3cn(C)nc3OC)c3ncc(C)n3n2)C[C@H]1F [Example 1, N-((3R,4R)-4-fluoro-1-(4-((3-methoxy-1-methyl-1H-pyrazol-4-yl)amino)-7-methylimidazo[2,1-f][1,2,4]triazin-2-yl)pyrrolidin-3-yl)acrylamide] | ≤ 7.00 | ≥ 8.00 | > 7.30 | ≥ 8.00 | > 7.30 | ≥ 8.00 | ≤ 6.52 | ≥ 8.00 | ≤ 7.00 |
| C=CC(=O)N[C@@H]1CN(c2nc(Nc3cn([C@H]4CCN(C)C4)nc3OC)c3ncc(C)n3n2)C[C@H]1F [Example 2, N-((3R,4R)-4-fluoro-1-(4-((3-methoxy-1-((S)-1-methylpyrrolidin-3-yl)-1H-pyrazol-4-yl)amino)-7-methylimidazo[2,1-f][1,2,4]triazin-2-yl)pyrrolidin-3-yl)acrylamide] | ≤ 7.00 | – | > 7.30 | ≥ 8.00 | > 7.30 | ≥ 8.00 | 6.52 to 7.30 | ≥ 8.00 | ≤ 7.00 |
| C=CC(=O)N[C@@H]1CN(c2nc(Nc3cn(C4CCN(C)CC4)nc3OC)c3ncc(C)n3n2)C[C@H]1F [Example 4, N-((3R,4R)-4-fluoro-1-(4-((3-methoxy-1-(1-methylpiperidin-4-yl)-1H-pyrazol-4-yl)amino)-7-methylimidazo[2,1-f][1,2,4]triazin-2-yl)pyrrolidin-3-yl)acrylamide] | ≤ 7.00 | – | > 7.30 | ≥ 8.00 | > 7.30 | ≥ 8.00 | 6.52 to 7.30 | ≥ 8.00 | ≤ 7.00 |
| C=CC(=O)N[C@@H]1CN(c2nc(Nc3cn(CCN(C)C)nc3OC)c3ncc(C)n3n2)C[C@H]1F [Example 5, N-((3R,4R)-1-(4-((1-(2-(dimethylamino)ethyl)-3-methoxy-1H-pyrazol-4-yl)amino)-7-methylimidazo[2,1-f][1,2,4]triazin-2-yl)-4-fluoropyrrolidin-3-yl)acrylamide] | ≤ 7.00 | – | > 7.30 | ≥ 8.00 | > 7.30 | ≥ 8.00 | 6.52 to 7.30 | ≥ 8.00 | ≤ 7.00 |
